The record followed here is patent US10160764B2 (priority 2016, dated 2018).

pEC50: −log10 of the molar value.

For this experiment, the target named is influenza virus minigenome (PB2, PB1, PA, NP, Luciferase reporter), Hubei (Influenza A virus, UniProt A0A1L2FNK2). In kind it is cell-based. As to conditions: read-out: RNP_Hubei EC50.

Consider `O=C1c2c(O)c(=O)cnn2[C@@H]([C@@H](c2cccc(F)c2)c2ccc(F)c(F)c2)[C@H]2CCCN12` [Example 34, (9aR,10S)-10-((S)-(3,4-difluorophenyl)(3-fluorophenyl)methyl)-4-hydroxy-8,9,9a,10-tetrahydro-7H-pyrrolo[1′,2′:4,5]pyrazino[1,2-b]pyridazine-3,5-dione], for which the pEC50 – broadly, the negative decadic logarithm of the EC50, by convention in mol/L – is 7.37.
